# Source: patent US20040127567A1, “Novel methods for treating disorders in which docosahexaenoic acid (DHA) levels are affected” (Beth Israel Deaconess Medical Center, Inc., priority 1998, published 2004)
# Experiments:
# CFTR−/− mice [1] = assay: Fatty acid levels (GC/MS) in pancreas and lung cells of CFTR−/− mice fed n-3 fatty acids; format: in vivo, mouse; conditions: CFTR-/- mice, 40 mg/day for one week (fish oil: dose equivalent to 40 mg DHA, 60 mg EPA, 15 mg LNA); mean ± S.D.
# Method: Mouse pancreatic acinar and lung cell suspensions were prepared from wild type (n=3) and CFTR−/− mice (n=3) by enzymatic and mechanical dissociation. In addition, brain, kidney, heart, spleen, and blood were sonicated in 0.3M sucrose buffer. Membrane lipids were extracted from cell and organ preparations with 20 volumes of chloroform-methanol 2:1 (v/v), transmethylated with 0.5 mL of 0.1 N methanolic-NaOH/BF3 reagent, and the resulting fatty acid methyl esters analyzed by gas chromatography/mass spectrometry (GC/MS). In a different set of experiments, lipids were fractionated by aminopropyl column chromatography into triglycerides, cholesterol esters, and phosphoglycerides and the fatty acid composition of each lipid class determined by a combination of enzymatic hydrolysis, transmethylation, and GC/MS.
# Cystic fibrosis (UNC strain) and wild type mice (12-20 grams body weight) were fed with a complete liquid enteral formulation (Peptamen™, Nestle Clinical Nutrition, Inc.) supplemented with different quantities of the DHA-containing formulation Neuromins (Nature's Way Products Inc., Springville, Utah). DHA content in the Neuromins formulation was 100 mg per 500 mg of formulation. Mice were fed once a day at about 11 a.m., seven days a week with 20 ml of Peptamen™ supplemented with the various amounts of either Neuramins, free DHA (Sigma Chemical Co., MO) or DHA-ethyl ester (Nu-Check-Prep, Inc. MN) ranging from 0.5 mg/day of DHA to 40 mg/day of DHA.
# Lung and acinar cells were isolated from a CF mouse fed with DHA formula (mouse-1, 40 mg/day DHA). The pellets (0.5 mL for pancreas cell homogenate and 0.6 mL for lung cell homogenate) were extracted with 3 mL of chloroform-methanol 2:1 (v/v). The resulting emulsion was vortexed, centrifuged at 800 g for 3 min., and the lower phase aspirated. The residual upper phase was partitioned again with 3 mL of chloroform-methanol 2:1 (v/v), the lower phase aspirated and both lower phases combined. Fractions were evaporated to dryness, processed for fatty acid methyl esters (FAME) and were analyzed by GC-MS analysis. Aliquots of 10 μL of 17:0 methyl ester solution in hexane [1 μg/μL] were added to the samples after methylation.
# (§1) Lung and acinar cells were isolated from a CF and a wild-type (WT) mouse fed with DHA formula. The pellets (0.5 mL for pancreas cell homogenate and 0.6 mL for lung cell homogenate) were extracted with 3 mL of chloroform-methanol 2:1 (v/v). The resulting emulsion was vortexed, centrifuged at 800 g for 3 min., and the lower phase aspirated. The residual upper phase was partitioned again with 3 mL of chloroform-methanol 2:1 (v/v), the lower phase aspirated and both lower phases combined. Fractions were evaporated to dryness, processed for FAME and analyzed by GC-MS. Aliquots of 20 μL of 17:0 in chloroform-methanol 2:1 (v/v) were added to the samples before methylation.
# as §1, with “from” for “from a”, “mice” for “and a wild-type (WT) mouse”, “different doses of DHA, i.e., 0.5 mg/day, 2.0 mg/day, 10 mg/day or 40 mg/day DHA.” for “DHA formula.”, “pellets” for “pellets (0.5 mL for pancreas cell homogenate and 0.6 mL for lung cell homogenate)”, “30” for “20”
# CFTR−/− mice were prepared as described in Example 1. Both CFTR−/− mice and wild type mice were euthanized with carbon dioxide, and cell suspensions from pancreas and lung isolated.
# CFTR−/− mice [2] = assay: as above; format: in vivo, mouse; conditions: CFTR-/- mice, 40 mg/day for one week (fish oil: dose equivalent to 40 mg DHA, 60 mg EPA, 15 mg LNA); mean ± S.D.; remark: listed apart in the source
structure (smiles),measurement,setting,value
"CC/C=C\C/C=C\C/C=C\C/C=C\C/C=C\CCCC(=O)O [EPA, Eicosapentaenoic acid, reference compound]",DHA level in pancreas,CFTR−/− mice [1],2.2 ± 0.4 nmol/mg
same,AA level in pancreas,CFTR−/− mice [2],5.1 ± 0.3 nmol/mg
